Laboratory results reported in patent US20250197387A1, “BCL-XL DEGRADERS AND USES THEREOF” (Kymera Therapeutics, Inc., priority 2021, published 2025).

Key:
Format in all cases: cell-based
BCL-XL = target: T1, BCL-XL (Homo sapiens, UniProt Q07817); assay: Bcl-xL ELISA degradation in MOLT-4 cells, 6 h; conditions: for DC50: read-out: Bcl-xL ELISA in MOLT-4 degradation 6 h: Mean external-Abs DC50
T1 construct: endogenous in cells; host or cells: MOLT-4
Procedure: The letter codes for BCL-XL DC50 include: A (<0.01 μM); B (0.01-0.1 μM); C (>[…]); D (>0.5-1.0 μM); and E (>1.0 μM). The letter codes for Dmax % include A (>75%); B (50 to 75%); C (<50%).

MOLT-4 cells = assay: CTG (CellTiter-Glo) cell viability assay, MOLT-4; conditions: Homo sapiens, MOLT-4, 72 h, 3 day incubation, read-out: CTG Cell Viability Assay - MOLT-4 3 day: Average external-IC50
Method in brief: (§1)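 MOLT-4 and Caki-2 cells were seeded at 10,000 per well and treated with a 9-point, 1:3 dilution series from 10 μM top concentration (0.2% DMSO). After 3 days at 37 °C, 5% CO2, viability was read by CellTiter-Glo luminescence and IC50 fitted by three-parameter logistic.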

Caki-2 cells = assay: CTG (CellTiter-Glo) cell viability assay, Caki-2; conditions: Homo sapiens, 72 h, 3 day incubation, read-out: CTG Chempartner - Caki-2 3 day: Average external-IC50
Method in brief: as §1

T1 sequence (Q07817 whole entry): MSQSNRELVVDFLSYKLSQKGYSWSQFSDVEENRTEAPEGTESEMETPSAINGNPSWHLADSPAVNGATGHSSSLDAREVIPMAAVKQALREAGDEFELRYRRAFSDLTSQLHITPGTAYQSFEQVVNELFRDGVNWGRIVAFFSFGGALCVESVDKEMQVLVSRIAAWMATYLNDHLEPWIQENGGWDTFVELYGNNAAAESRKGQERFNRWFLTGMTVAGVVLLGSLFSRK

Row | Dmax (BCL-XL) | DC50 (BCL-XL) | IC50 (MOLT-4 cells) | Compound | IC50 (Caki-2 cells)
1 | > 75% | 100 to 500 nM | 100 to 1000 nM | Cc1ncsc1-c1ccc([C@H](C)NC(=O)[C@@H]2C[C@@H](O)CN2C(=O)[C@@H](NC(=O)C2CCN(c3ccc(S(=O)(=O)NC(=O)c4nc(N5CCc6cccc(C(=O)Nc7nc8ccccc8s7)c6C5)ccc4-c4cnn(CC5CCCCC5)c4C)cc3)C(=O)C2)C(C)(C)C)cc1 (stereo partly shown) [I-299] | 1000 to 10000 nM
2 | > 75% | 10 to 100 nM | < 100 nM | Cc1ncsc1-c1ccc([C@H](C)NC(=O)[C@@H]2C[C@@H](O)CN2C(=O)[C@@H](NC(=O)CCCCCS(=O)(=O)NC(=O)c2nc(N3CCc4cccc(C(=O)Nc5nc6ccccc6s5)c4C3)ccc2-c2ccnc(OC(C)C)c2C)C(C)(C)C)cc1 [I-315] | > 10000 nM
3 | 50 to 75% | 100 to 500 nM | 100 to 1000 nM | Cc1ncsc1-c1ccc([C@H](C)NC(=O)[C@@H]2C[C@@H](O)CN2C(=O)[C@@H](NC(=O)C2CCN(c3ccc(S(=O)(=O)NC(=O)c4nc(N5CCc6cccc(C(=O)Nc7nc8ccccc8s7)c6C5)ccc4-c4cccc(N(C)C(C)C)c4C)cc3)CC2)C(C)(C)C)cc1 [I-323] | > 10000 nM
4 | > 75% | 10 to 100 nM | < 100 nM | Cc1ncsc1-c1ccc(CNC(=O)[C@@H]2C[C@@H](O)CN2C(=O)[C@@H](NC(=O)C2CCN(c3ccc(S(=O)(=O)NC(=O)c4nc(N5CCc6cccc(C(=O)Nc7nc8ccccc8s7)c6C5)ccc4-c4cnn(CC5CCCCC5)c4C)cc3F)CC2)C(C)(C)C)cc1 [I-329] | 1000 to 10000 nM
5 | 50 to 75% | 10 to 100 nM | 100 to 1000 nM | Cc1ncsc1-c1ccc([C@H](C)NC(=O)[C@@H]2C[C@H](O)CN2C(=O)[C@@H](NC(=O)C2CCN(c3ccc(S(=O)(=O)NC(=O)c4nc(N5CCc6cccc(C(=O)Nc7nc8ccccc8s7)c6C5)ccc4-c4cnn(CC5CCCCC5)c4C)cc3)CC2)C(C)(C)C)cc1 [I-295] | 1000 to 10000 nM
6 | > 75% | 10 to 100 nM | < 100 nM | Cc1ncsc1-c1ccc(CNC(=O)[C@@H]2C[C@@H](O)CN2C(=O)[C@@H](NC(=O)COc2ccc(S(=O)(=O)NC(=O)c3nc(N4CCc5cccc(C(=O)Nc6nc7ccccc7s6)c5C4)ccc3-c3cnn(CC4CCCCC4)c3C)cc2)C(C)(C)C)cc1 [I-327] | 1000 to 10000 nM
7 | > 75% | < 10 nM | < 100 nM | Cc1ncsc1-c1ccc([C@H](C)NC(=O)[C@@H]2C[C@@H](O)CN2C(=O)[C@@H](NC(=O)C2CCCN(c3ccc(S(=O)(=O)NC(=O)c4nc(N5CCc6cccc(C(=O)Nc7nc8ccccc8s7)c6C5)ccc4-c4cnn(CC5CCCCC5)c4C)cc3)C2)C(C)(C)C)cc1 (stereo partly shown) [I-419] | 1000 to 10000 nM
8 | > 75% | 10 to 100 nM | 100 to 1000 nM | Cc1ncsc1-c1ccc([C@H](C)NC(=O)[C@@H]2C[C@@H](O)CN2C(=O)[C@@H](NC(=O)C2CCN(c3ccc(S(=O)(=O)NC(=O)c4nc(N5CCc6cccc(C(=O)Nc7nc8ccccc8s7)c6C5)ccc4-c4ccnc(N(C)C(C)C)c4C)cc3)CC2)C(C)(C)C)cc1 [I-332] | > 10000 nM

The remaining lines, values behind:

Row | Compound | Dmax (BCL-XL) | DC50 (BCL-XL) | IC50 (MOLT-4 cells) | IC50 (Caki-2 cells)
9 | Cc1cc(N(C)c2ccc(-c3cnn(CC45CC6CC(CC(C6)C4)C5)c3C)c(C(=O)NS(=O)(=O)c3ccc(N4CC(C(=O)N[C@H](C(=O)N5C[C@H](O)C[C@H]5C(=O)NCc5ccc(-c6scnc6C)cc5)C(C)(C)C)C4)cc3)n2)nnc1Nc1nc2ccccc2s1 [I-437] | > 75% | 10 to 100 nM | < 100 nM | > 10000 nM
10 | Cc1ncsc1-c1ccc([C@H](C)NC(=O)[C@@H]2C[C@@H](O)CN2C(=O)[C@@H](NC(=O)[C@H]2CC[C@H](N3CCC(S(=O)(=O)NC(=O)c4nc(N5CCc6cccc(C(=O)Nc7nc8ccccc8s7)c6C5)ccc4-c4cnn(CC5CCCCC5)c4C)CC3)CC2)C(C)(C)C)cc1 [I-357] | > 75% | 100 to 500 nM | 1000 to 3000 nM | 1000 to 10000 nM
11 | C#Cc1ccc(CNC(=O)[C@@H]2C[C@@H](O)CN2C(=O)[C@H](NC(=O)CCCCCS(=O)(=O)NC(=O)c2nc(N3CCc4cccc(C(=O)Nc5nc6ccccc6s5)c4C3)ccc2-c2cnn(CC3CCCCC3)c2C)C(C)(C)CCO)cc1 [I-355] | > 75% | 100 to 500 nM | 1000 to 3000 nM | > 10000 nM
12 | Cc1ncsc1-c1ccc([C@H](C)NC(=O)[C@@H]2C[C@@H](O)CN2C(=O)[C@@H](NC(=O)C2CCN(C3CCN(S(=O)(=O)NC(=O)c4nc(N5CCc6cccc(C(=O)Nc7nc8ccccc8s7)c6C5)ccc4-c4cnn(CC5CCCCC5)c4C)CC3)CC2)C(C)(C)C)cc1 [I-308] | > 75% | 100 to 500 nM | < 100 nM | 1000 to 10000 nM
13 | C#Cc1ccc(CNC(=O)[C@@H]2C[C@@H](O)CN2C(=O)[C@@H](NC(=O)CCCCCS(=O)(=O)NC(=O)c2nc(N3CCc4cccc(C(=O)Nc5nc6ccccc6s5)c4C3)ccc2-c2cnn(CC3CCCCC3)c2C)C(C)(C)CCOP(=O)(O)O)cc1 [I-417] | 50 to 75% | > 1000 nM | > 3000 nM | > 10000 nM
14 | Cc1c(-c2ccc(N3CCc4cccc(C(=O)Nc5nc6ccccc6s5)c4C3)nc2C(=O)NS(=O)(=O)CCCCCc2cccc3c2n(C)c(=O)n3C2CCC(=O)NC2=O)cnn1CC1CCCCC1 (stereo not shown) [I-426] | > 75% | < 10 nM | < 100 nM | 1000 to 10000 nM
15 | Cc1ncsc1-c1ccc([C@H](C)NC(=O)[C@@H]2C[C@@H](O)CN2C(=O)[C@H](NC(=O)CCCCCCCS(=O)(=O)NC(=O)c2nc(N3CCc4cccc(C(=O)Nc5nc6ccccc6s5)c4C3)ccc2-c2cnn(CC34CC5CC(CC(C5)C3)C4)c2C)C(C)(C)C)cc1 [I-284] | > 75% | < 10 nM | < 100 nM | 100 to 1000 nM
16 | C#Cc1ccc(CNC(=O)[C@@H]2C[C@@H](O)CN2C(=O)[C@H](c2cc(N3CCN(c4ccc(S(=O)(=O)NC(=O)c5nc(N6CCc7cccc(C(=O)Nc8nc9ccccc9s8)c7C6)ccc5-c5cnn(CC6CCCCC6)c5C)cc4)CC3)no2)C(C)C)c(OC)c1 [I-408] | 50 to 75% | < 10 nM | < 100 nM | > 10000 nM
17 | C#Cc1ccc([C@H](C)NC(=O)[C@@H]2C[C@@H](O)CN2C(=O)[C@@H](NC(=O)CCCCCS(=O)(=O)NC(=O)c2nc(N3CCc4cccc(C(=O)Nc5nc6cccnc6s5)c4C3)ccc2-c2cnn(CC3CCCCC3)c2C)C(C)(C)C)c(OCCO)c1 [I-480] | > 75% | < 10 nM | < 100 nM | > 10000 nM
18 | Cc1cc(N(C)c2ccc(-c3cnn(CC4CCCC4)c3C)c(C(=O)NS(=O)(=O)c3ccc(N4CCC(C(=O)N[C@H](C(=O)N5C[C@H](O)C[C@H]5C(=O)N[C@@H](C)c5ccc(-c6scnc6C)cc5)C(C)(C)C)CC4)cc3)n2)nnc1Nc1nc2cccnc2s1 [I-457] | 50 to 75% | 500 to 1000 nM | 1000 to 3000 nM | > 10000 nM
19 | C#Cc1ccc(C2(NC(=O)[C@@H]3C[C@@H](O)CN3C(=O)[C@@H](NC(=O)CCCCCS(=O)(=O)NC(=O)c3nc(N(C)c4cc(C)c(Nc5nc6ccccc6s5)nn4)ccc3-c3cnn(CC45CC6CC(CC(C6)C4)C5)c3C)C(C)(C)C)CC2)cc1 [I-481] | > 75% | < 10 nM | < 100 nM | > 10000 nM
20 | C#Cc1ccc([C@H](C)NC(=O)[C@@H]2C[C@@H](O)CN2C(=O)[C@@H](NC(=O)CCCCCS(=O)(=O)NC(=O)c2nc(N(C)c3cc(C)c(Nc4nc5cccnc5s4)nn3)ccc2-c2cnn(CC34CC5CC(CC(C5)C3)C4)c2C)C(C)(C)C)cc1 [I-447] | > 75% | 10 to 100 nM | 100 to 1000 nM | > 10000 nM
21 | C#Cc1ccc(CNC(=O)[C@@H]2C[C@@H](O)CN2C(=O)[C@@H](NC(=O)CCCS(=O)(=O)NC(=O)c2nc(N3CCc4cccc(C(=O)Nc5nc6cccnc6s5)c4C3)ccc2-c2cnn(CC3CCCCC3)c2C)C(C)(C)C)cc1 [I-362] | > 75% | 10 to 100 nM | 100 to 1000 nM | > 10000 nM
22 | Cc1cnc(NC(=O)c2cccc3c2CN(c2ccc(-c4cnn(CC5CCCCC5)c4C)c(C(=O)NS(=O)(=O)CCCCCC(=O)N[C@H](C(=O)N4C[C@H](O)C[C@H]4C(=O)N[C@@H](C)c4ccc(-c5scnc5C)cc4)C(C)(C)C)n2)CC3)s1 [I-460] | > 75% | 10 to 100 nM | < 100 nM | > 10000 nM
